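Step 1: Grow cells in 96-well plates. Step 2: Expose to compound for 48 hours at 5 concentrations. Step 3: Interpolate endpoints linearly; if unreached, use highest concentration. The concentration for 50% growth inhibition is given as GI50.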 Activity calls are given as the source filed them. Rule as the data show it: active = GI50 up to about 1.1 µM and inactive = higher.
How the values were obtained:
Test in all cases: NCI-60 cell line screen, 48 h
786-0 = system: 786-0
T47D = system: T47D
SK-MEL-2 = system: SK-MEL-2
NCI-H23 = system: NCI-H23
M14 = system: M14
NCI-H522 = system: NCI-H522
SF-295 = system: SF-295
A498 = system: A498
HCC 2998 = system: HCC 2998
UACC-257 = system: UACC-257
ACHN = system: ACHN
BT-549 = system: BT-549
MOLT-4 = system: MOLT-4
SNB-75 = system: SNB-75
SF-268 = system: SF-268
RXF 393 = system: RXF 393
MDA-MB-435 = system: MDA-MB-435
DU-145 = system: DU-145
SW-620 = system: SW-620

Row | Structure (SMILES) | GI50 (786-0) | GI50 (T47D) | GI50 (SK-MEL-2) | GI50 (NCI-H23) | GI50 (M14) | GI50 (NCI-H522) | GI50 (SF-295) | GI50 (A498) | GI50 (HCC 2998) | GI50 (UACC-257) | GI50 (ACHN) | GI50 (BT-549) | GI50 (MOLT-4) | GI50 (SNB-75) | GI50 (SF-268) | GI50 (RXF 393) | GI50 (MDA-MB-435) | GI50 (DU-145) | GI50 (SW-620)
1 | COC(=O)C(=O)C(C(=O)C(=O)Nc1ccccc1C(C)=O)c1nc2ccc(C(=O)c3ccccc3)cc2nc1O (centres undefined) | > 100 µM (inactive) | 56.4 µM (inactive) | > 100 µM (inactive) | 35.2 µM (inactive) | > 100 µM (inactive) | 28.4 µM (inactive) | 45.1 µM (inactive) | > 100 µM (inactive) | 78.3 µM (inactive) | > 100 µM (inactive) | 73.8 µM (inactive) | > 100 µM (inactive) | 56.2 µM (inactive) | 32.7 µM (inactive) | 68.2 µM (inactive) | 51.5 µM (inactive) | – | – | –
2 | O=C(N/N=C1/C(=O)c2c3ccccc3cc3cccc1c23)c1cccc(Cl)c1 | 56.6 µM (inactive) | – | > 100 µM (inactive) | > 100 µM (inactive) | > 100 µM (inactive) | – | – | > 100 µM (inactive) | > 100 µM (inactive) | > 100 µM (inactive) | 33 µM (inactive) | > 100 µM (inactive) | 0.711 µM (active) | > 100 µM (inactive) | – | > 100 µM (inactive) | > 100 µM (inactive) | 70.3 µM (inactive) | > 100 µM (inactive)
3 | COC(=O)N1CC2(CO)C3CC=C(C(=O)Nc4ccccc4Br)C2C1C3Br (centres undefined) | > 50 µM (inactive) | > 50 µM (inactive) | > 50 µM (inactive) | > 50 µM (inactive) | > 50 µM (inactive) | – | > 50 µM (inactive) | > 50 µM (inactive) | > 50 µM (inactive) | > 50 µM (inactive) | > 50 µM (inactive) | – | > 50 µM (inactive) | > 50 µM (inactive) | > 50 µM (inactive) | > 50 µM (inactive) | > 50 µM (inactive) | > 50 µM (inactive) | > 50 µM (inactive)
4 | CC1(C)CSCC(C)(C)C(=N/N)/C1=N\N | > 100 µM (inactive) | > 100 µM (inactive) | > 100 µM (inactive) | > 100 µM (inactive) | > 100 µM (inactive) | > 100 µM (inactive) | > 100 µM (inactive) | > 100 µM (inactive) | > 100 µM (inactive) | > 100 µM (inactive) | > 100 µM (inactive) | – | – | > 100 µM (inactive) | > 100 µM (inactive) | – | > 100 µM (inactive) | > 100 µM (inactive) | > 100 µM (inactive)
5 | CC(C)/C(Cl)=N\OC(=O)Nc1cccc(F)c1 | 16 µM (inactive) | 24.8 µM (inactive) | 7.76 µM (inactive) | 15.9 µM (inactive) | 0.933 µM (active) | 1.49 µM (inactive) | 32.9 µM (inactive) | 12.9 µM (inactive) | 19.3 µM (inactive) | 15.8 µM (inactive) | 14.6 µM (inactive) | 2.66 µM (inactive) | 2.28 µM (inactive) | 22.6 µM (inactive) | 19.6 µM (inactive) | 17.1 µM (inactive) | – | 18.4 µM (inactive) | 2.23 µM (inactive)
6 | CN(C)c1ccc2c(NCCCCCCNc3ccnc4cc(N(C)C)ccc34)ccnc2c1 | 20.8 µM (inactive) | – | 20.2 µM (inactive) | 10.1 µM (inactive) | 22.6 µM (inactive) | 6.75 µM (inactive) | 10.7 µM (inactive) | 35.1 µM (inactive) | 15.7 µM (inactive) | 14.9 µM (inactive) | 16.2 µM (inactive) | – | 6 µM (inactive) | – | 28 µM (inactive) | 16 µM (inactive) | – | – | 23.3 µM (inactive)
7 | Cc1ccc(-n2nnc3c(NNc4ccccc4)n[nH]c(=O)c32)cc1 | 67.3 µM (inactive) | – | 67.5 µM (inactive) | 72.1 µM (inactive) | > 100 µM (inactive) | 30.2 µM (inactive) | 55.2 µM (inactive) | – | > 100 µM (inactive) | > 100 µM (inactive) | > 100 µM (inactive) | 73.3 µM (inactive) | 44 µM (inactive) | 36.6 µM (inactive) | > 10 µM (inactive) | – | 74.6 µM (inactive) | > 100 µM (inactive) | –
8 | O=C1CN(c2cccc(C(F)(F)F)c2)C(=O)CN1NCNN1CC(=O)N(c2cccc(C(F)(F)F)c2)CC1=O | > 100 µM (inactive) | > 100 µM (inactive) | – | – | > 100 µM (inactive) | 52.5 µM (inactive) | > 100 µM (inactive) | – | > 100 µM (inactive) | > 100 µM (inactive) | > 100 µM (inactive) | – | > 100 µM (inactive) | > 100 µM (inactive) | > 100 µM (inactive) | – | > 100 µM (inactive) | – | > 100 µM (inactive)
9 | NC(=O)CC(Nc1ncc2c(n1)-c1ccccc1OC2)C(=O)O (centres undefined) | > 100 µM (inactive) | – | > 100 µM (inactive) | > 100 µM (inactive) | > 100 µM (inactive) | > 100 µM (inactive) | > 100 µM (inactive) | – | – | 61.7 µM (inactive) | > 100 µM (inactive) | – | > 100 µM (inactive) | 67.9 µM (inactive) | > 100 µM (inactive) | > 100 µM (inactive) | > 100 µM (inactive) | > 100 µM (inactive) | > 100 µM (inactive)
